Assay results published in patent EP1231468A1, “METHOD FOR DETECTING EXOGENOUS ENDOCRINE DISRUPTING CHEMICAL AND DETECTION APPARATUS” (Central Research Institute of Electric Power Industry, priority 1999, dated 2001).

Target: T1, human estrogen receptor α (Homo sapiens, UniProt P03372)
T1 sequence (P03372 1-595): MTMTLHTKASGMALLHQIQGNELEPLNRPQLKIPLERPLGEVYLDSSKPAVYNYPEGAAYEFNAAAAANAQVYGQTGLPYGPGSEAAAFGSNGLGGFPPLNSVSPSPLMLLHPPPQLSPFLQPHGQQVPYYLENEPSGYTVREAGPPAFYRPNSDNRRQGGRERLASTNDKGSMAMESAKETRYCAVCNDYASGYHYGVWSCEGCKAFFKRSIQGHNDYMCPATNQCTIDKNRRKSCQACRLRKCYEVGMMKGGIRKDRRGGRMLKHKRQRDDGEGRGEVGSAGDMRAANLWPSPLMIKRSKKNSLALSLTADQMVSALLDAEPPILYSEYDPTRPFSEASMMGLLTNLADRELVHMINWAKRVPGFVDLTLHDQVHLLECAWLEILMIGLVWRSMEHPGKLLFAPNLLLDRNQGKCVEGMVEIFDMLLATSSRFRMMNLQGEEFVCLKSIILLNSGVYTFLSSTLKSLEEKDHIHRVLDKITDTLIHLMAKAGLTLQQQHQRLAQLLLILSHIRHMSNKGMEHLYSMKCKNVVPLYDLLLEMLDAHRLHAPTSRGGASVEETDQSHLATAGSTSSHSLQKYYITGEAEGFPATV
Assay: Competitive bonding of E2-BSA-CY5 and test substance to immobilized estrogen receptor, flow-type fluorescence detection
Assay type: binding
Details: for range of concentration in which reduction in fluorescence intensity can be confirmed / substance can be detected: bonding inhibition ratio against concentration, Fig. 4, Fig. 6; for inhibition of bonding of E2-BSA-CY5 to the receptor (reduction in fluorescence intensity): various concentrations added to E2-BSA-CY5 of fixed concentration, Fig. 3, Fig. 5
Method: As an estrogen receptor, a human estrogen receptor α [manufactured by PanVela Corporation, Drive Madison, Wisconsin, USA] was used.
Immobilization of the estrogen receptor to a carrier (beads) was carried out by natural adsorption. […] 0.2 g of the beads was put in a small test tube, and suspended in 1 ml of a buffer for bonding (50 mM tris HCl, 500 mM KCl, 2mM DDT, 1mM EDTA, 10% glycerol, pH 7.8). 70 pmol of the estrogen receptor was put in this suspension, and blended for 30 minutes at a room temperature. Thereafter, 100 µl of bovine serum albumin was added so as to obtain the final concentration of 1 mg/ml. After addition, it is further blended for 30 minutes at a room temperature. Subsequently, the particles were washed by using the same buffer, again suspended in 30 ml of the same buffer, and used for measurement. It is to be noted that, as beads for comparison in which the estrogen receptor is not immobilized, those obtained by adding only bovine serum albumin to the beads were prepared by the similar operation.
In order to provide this fluorescence dye, a CY5 labeling kit [manufactured by Amersham Life Science, Arlington Heights, Illinois, USA] was used. The 17β-estradiol-bovine serum albumin having the fluorescence dye given thereto and the free fluorescence dye were partitioned by the gel filtration chromatography.
For measurement of a fluorescence intensity, a detector having a flow type fluorophotometer [manufactured by Sapidyne Instrument Inc., Boise, Idaho, USA] incorporated therein was used. […] The fluorescence intensity can be measured in units of an electrical signal by an excitation light source 3 and the detector 4 arranged with a glass cell 1 having a diameter of 1.5 mm and a length of 30 mm therebetween. The immobilized estrogen receptor 2 having the shape of beads is filled in the glass cell 1 by being banked up and laminated by a screen S consisting of 50 µm nylon mesh set in the glass cell 1. […] The material remaining between beads, which is not bonded to the receptor 2, is discharged from the direction indicated by an arrow b by leading only the buffer at a speed of 1.5 ml/min. Thereafter, the remaining fluorescence intensity was evaluated as a quantity of bonding. Specifically, the buffer for bonding was diluted with E2-BSA-CY5 so as to obtain approximately 400 ng/ml. It is to be noted that this concentration was appropriately adjusted in accordance with a ratio of provision of the fluorescence in E2-BSA-CY5. The same quantity of the buffer for bonding in which a natural hormone or a chemical substance with the already-known concentration was dissolved was added to the diluted solution and left to take its own course at a room temperature for 30 minutes. Incidentally, in case of a water-insoluble material, it was completely dissolved in dimethyl sulfoxide and then appropriately diluted. Further, it was left to stand and used for measurement.

## CC(C)(c1ccc(O)cc1)c1ccc(O)cc1 [bisphenol A]
  range of concentration in which reduction in fluorescence intensity can be confirmed / substance can be detected: 10^-8 to 10^-6 M
  inhibition of bonding of E2-BSA-CY5 to the receptor (reduction in fluorescence intensity): the fluorescence intensity was lowered

## C[C@]12CC[C@H]3[C@@H](CCC4=CC(=O)CC[C@@]43C)[C@@H]1CC[C@@H]2O [testosterone, reference compound]
  inhibition of bonding of E2-BSA-CY5 to the receptor (reduction in fluorescence intensity): did not inhibit

## nonylphenol
  range of concentration in which reduction in fluorescence intensity can be confirmed / substance can be detected: 10^-9 to 10^-5 M
  inhibition of bonding of E2-BSA-CY5 to the receptor (reduction in fluorescence intensity): the fluorescence intensity was lowered
